The text below walks through data of US20240391903A1, “AUTOTAXIN-INHIBITORS” (UNIVERSITAET MUENSTER, priority 2021, published 2024).

One may read the CC50 as the concentration at which the toxic effect on the cells reaches its halfway point. Read a high CC50 as lower toxicity to the cells.

“Also recorded” adds a separate entry of the source.

Series [1] is described as follows: Cytotoxicity testing in HeLa cells (methylene blue). The format is cell-based. Conditions: human, HeLa cells (DSM ACC 57), 72 hours incubation. The method, then: Hela cells (DSM ACC 57) were grown in RPMI 1640 medium supplemented with 10 mL·L^−1 ultraglutamine 1 (CAMBREX 17-605E/U1), 550 μL·L^−1 gentamicin sulfate (50 mg·mL^−1, CAMBREX 17-518Z) and 10% heat inactivated fetal bovine serum (GIBCO Life Technologies 10270-106) at 37° C. in a 5% CO2 atmosphere in high density polyethylene flasks (NUNC 156340). Cells were pre-incubated for 48 hours in the absence of test substances. Subsequently, Hela cells were incubated with serial dilutions of the test substances in 96 well microplates for 72 hours at 37° C. in a humidified atmosphere and 5% CO2. After incubation, the cytolytic effect of compounds was analyzed relative to the negative control (DMSO) using a colorimetric assay (methylene blue). The adherent Hela cells were fixed by glutaraldehyde (MERCK 1.04239.0250) and stained with a 0.05% solution of methylene blue (SERVA 29198) for 15 min. After gentle rinsing, the stain was eluted through addition of 0.2 mL hydrochloric acid (0.33 M) to each well. The absorptions were measured at 660 nm in a SUNRISE microplate reader (TECAN). Four replicates were assayed for each substance. […] All calculations of CC50 values were performed with the software Magellan (TECAN).

Series [2] in a line: Microsomal stability assay. To be noted: human liver microsomes. The format is in vitro ADME. The method, then:
A microsomal stability assay was performed according to an internal standard procedure. Positive control compound diclofenac and three test items were freshly prepared as sub-dilutions in phosphate buffer (100 mM, pH 7.4) at concentrations of 200 μM and 20 μM, respectively. All incubations were conducted in triplicate in glass screw neck vials (1.5 mL, flat bottom, Macherey-Nagel, Düren, Germany) on a Thermomixer C (Eppendorf, Germany) at 37° C. and 1500 rpm. The incubation mixtures contained 270 μL human liver microsomes (HLM, 1.1 mg·mL^−1, UltraPool HLM 150, Corning B.V. Life Science, Amsterdam, the Netherlands), 270 μL NADP regeneration mix (1 mM NADP, 5 mM glucose-6-phosphate, 5 units·mL^−1 glucose-6-phosphate dehydrogenase and 5 mM MgCl2) and 30 μL phosphate buffer to reach a total volume of 570 μL. Negative controls were performed with heat inactivated (80° C., 30 min) HLM solution. Reactions were initiated by addition of diclofenac or the test item solution (30 μL). Aliquots of 100 μL were taken at 1, 15, 30, 60, and 90 minutes and immediately processed with 100 μL acetonitrile at 4° C. to terminate the reactions, and shaken for 2 minutes at 4° C. with 1600 rpm. The mixed samples were further transferred to 15 mm glass inserts (0.2 mL/6×31 mm, Macherey-Nagel, Düren, Germany) fitted in glass screw neck vials, and centrifuged for 15 min at 4° C. with 4000 rpm. The supernatants were withdrawn and subjected to high resolution mass spectrometry analysis without further treatment.
Samples were analyzed using a Vanquish Horizon UHPLC system (Thermo Fisher Scientific, Bremen, Germany) coupled to a Thermo Scientific QExactive HF-X Orbitrap mass spectrometer (Thermo Fisher Scientific, Bremen, Germany) using a UPLC column (ACQUITY HSS T3, Waters, 1.8 μm particle size, 2.1×50 mm dimensions). The column temperature was maintained at 25° C., and the samples were kept at 4° C. […]
Microsomal stability was determined in analogy to the method as described above, but as single determinations (FIG. 18).
Background: Liver microsomes are a subcellular fraction often used to study metabolism.

Take `O=C(OCc1cc(C(F)(F)F)cc(C(F)(F)F)c1)N1CCN(CCS(=O)(=O)c2ccc3nn[nH]c3c2)CC1` [MJK2134025, 3,5-bis(trifluoromethyl)benzyl 4-(2-((1H-benzo[d][1,2,3]triazol-6-yl)sulfonyl)ethyl)piperazine-1-carboxylate]: in series [1], half-maximal cytotoxicity (CC50 at 72 h) was put at 45100 nM. In addition, the “microsomal stability / metabolism (in words)” value in series [2] was “almost equally metabolically stable and superior to all other compounds tested; also recorded: favorable decay time course”.
